Results: ChEMBL document CHEMBL3046091, “Synthesis and antimicrobial activities of 2-azetidinyl-4-quinazolinone derivatives of diclofenac analogue” (2011)

Assays:
Format in all cases: functional
Staphylococcus aureus [1] = test: Antibacterial activity against Staphylococcus aureus ATCC 9144 at 50 ug/ml by cup-plate method; settings: read-out: IZ
Pseudomonas aeruginosa [2] = test: Antibacterial activity against Pseudomonas aeruginosa ATCC 9027 at 50 ug/ml by cup-plate method; settings: read-out: IZ
Pseudomonas aeruginosa [3] = test: Antibacterial activity against Pseudomonas aeruginosa ATCC 9027 at 50 to 100 ug/ml by cup-plate method
Bacillus subtilis [4] = test: Antibacterial activity against Bacillus subtilis ATCC 6633 at 50 to 100 ug/ml by cup-plate method
Escherichia coli [5] = test: Antibacterial activity against Escherichia coli ATCC 25922 at 50 to 100 ug/ml by cup-plate method
Bacillus subtilis [6] = test: Antibacterial activity against Bacillus subtilis ATCC 6633 at 50 ug/ml by cup-plate method; settings: read-out: IZ
Pseudomonas aeruginosa [7] = test: Antibacterial activity against Pseudomonas aeruginosa ATCC 9027 at 100 ug/ml by cup-plate method; settings: read-out: IZ
Escherichia coli [8] = test: Antibacterial activity against Escherichia coli ATCC 25922 at 50 ug/ml by cup-plate method; settings: read-out: IZ
Bacillus subtilis [9] = test: Antibacterial activity against Bacillus subtilis ATCC 6633 at 100 ug/ml by cup-plate method; settings: read-out: IZ
Candida albicans [10] = test: Antifungal activity against Candida albicans ATCC 10231 at 50 ug/ml by cup-plate method; settings: read-out: IZ
Escherichia coli [11] = test: Antibacterial activity against Escherichia coli ATCC 25922 at 100 ug/ml by cup-plate method; settings: read-out: IZ
Candida albicans [12] = test: Antifungal activity against Candida albicans ATCC 10231 at 100 ug/ml by cup-plate method; settings: read-out: IZ
Staphylococcus aureus [13] = test: Antibacterial activity against Staphylococcus aureus ATCC 9144 at 100 ug/ml by cup-plate method; settings: read-out: IZ
Staphylococcus aureus [14] = test: Antibacterial activity against Staphylococcus aureus ATCC 9144 at 50 to 100 ug/ml by cup-plate method

| SMILES | zone of inhibition at 50 µg/mL (Staphylococcus aureus [1]) | zone of inhibition at 50 µg/mL (Pseudomonas aeruginosa [2]) | Activity (Pseudomonas aeruginosa [3]) | Activity (Bacillus subtilis [4]) | Activity (Escherichia coli [5]) | zone of inhibition at 50 µg/mL (Bacillus subtilis [6]) | zone of inhibition at 100 µg/mL (Pseudomonas aeruginosa [7]) | zone of inhibition at 50 µg/mL (Escherichia coli [8]) | zone of inhibition at 100 µg/mL (Bacillus subtilis [9]) | zone of inhibition at 50 µg/mL (Candida albicans [10]) | zone of inhibition at 100 µg/mL (Escherichia coli [11]) | zone of inhibition at 100 µg/mL (Candida albicans [12]) | zone of inhibition at 100 µg/mL (Staphylococcus aureus [13]) | Activity (Staphylococcus aureus [14]) |
| --- | --- | --- | --- | --- | --- | --- | --- | --- | --- | --- | --- | --- | --- | --- |
| O=c1c2cc(Br)ccc2nc(Cc2ccccc2Nc2c(Cl)cccc2Cl)n1-c1ccc(/N=C/c2ccccc2O)cc1 | 3 mm | 2 mm | 38.83% | 36% | 36.74% | 3 mm | 4 mm | 3 mm | 5 mm | 0 mm | 5 mm | 1 mm | 5 mm | 42.87% |
| O=c1c2cc(Br)ccc2nc(Cc2ccccc2Nc2c(Cl)cccc2Cl)n1-c1ccc(/N=C/c2cccc([N+](=O)[O-])c2)cc1 | 1 mm | 1 mm | 33.92% | 24.99% | 28.39% | 2 mm | 3 mm | 1 mm | 3 mm | 1 mm | 3 mm | 2 mm | 3 mm | 29.73% |
| O=c1c2cc(Br)ccc2nc(Cc2ccccc2Nc2c(Cl)cccc2Cl)n1-c1ccc(/N=C/c2ccc(O)cc2)cc1 | 3 mm | 2 mm | 44.55% | 30.5% | 31.5% | 2 mm | 5 mm | 2 mm | 4 mm | 0 mm | 4 mm | 1 mm | 4 mm | 34.85% |
| O=c1c2cc(Br)ccc2nc(Cc2ccccc2Nc2c(Cl)cccc2Cl)n1-c1ccc(/N=C/c2ccccc2Cl)cc1 | 3 mm | 3 mm | 44.44% | 42.68% | 37.56% | 3 mm | 5 mm | 3 mm | 6 mm | 1 mm | 5 mm | 2 mm | 6 mm | 50.98% |
| O=c1c2cc(Br)ccc2nc(Cc2ccccc2Nc2c(Cl)cccc2Cl)n1-c1ccc(/N=C/c2ccc(Cl)cc2)cc1 | 4 mm | 3 mm | 46.93% | 59.79% | 49.68% | 5 mm | 6 mm | 5 mm | 9 mm | 2 mm | 7 mm | 4 mm | 6 mm | 50.88% |
| COc1ccc(/C=N/c2ccc(-n3c(Cc4ccccc4Nc4c(Cl)cccc4Cl)nc4ccc(Br)cc4c3=O)cc2)cc1 | 4 mm | 3 mm | 52.88% | 63.91% | 64.33% | 5 mm | 6 mm | 5 mm | 9 mm | 2 mm | 9 mm | 3 mm | 7 mm | 53.85% |
| COc1cc(/C=N/c2ccc(-n3c(Cc4ccccc4Nc4c(Cl)cccc4Cl)nc4ccc(Br)cc4c3=O)cc2)cc(OC)c1OC | 3 mm | 2 mm | 47.09% | 53.33% | 50% | 4 mm | 5 mm | 4 mm | 8 mm | 1 mm | 7 mm | 2 mm | 6 mm | 50.98% |
| O=c1c2cc(Br)ccc2nc(Cc2ccccc2Nc2c(Cl)cccc2Cl)n1-c1ccc(/N=C/c2ccccc2[N+](=O)[O-])cc1 | 2 mm | 2 mm | 35.33% | 36% | 32.65% | 3 mm | 4 mm | 2 mm | 5 mm | 1 mm | 4 mm | 2 mm | 3 mm | 28.43% |
